Assay results: patent publication US20220274954A1, “SUBSTITUTED N-PHENYL-N-AMINOUARCILS AND SALTS THEREOF AND USE THEREOF AS HERBICIDAL AGENTS” (Bayer Aktiengesellschaft, priority 2019, published 2022)

Columns and labels:
Format in all cases: in vivo
Polygonum convolvulus = assay: Comparative post-emergence herbicidal action (with Mero and AMS); conditions: with 1.5 l/ha Mero and 2 kg/ha AMS, rated after 21 days
Source text: (§1) Seeds of mono- or dicotyledonous weed plants were sown in pots (diameter 7 cm) with sandy loam soil, germinated under optimium growth conditions and cultivated for 21 days.
(§2) The compounds, formulated in the form of wettable powders (WP) or as emulsion concentrates (EC), were sprayed onto the green parts of the plants as aqueous suspension or emulsion with addition of 1.5 l/ha Mero and 2 kg/ha AMS at a water application rate of 300 l/ha (converted).
(§3) After the test plants had been kept in the greenhouse under optimum growth conditions for 21 days, the activity of the preparations was rated visually in comparison to untreated control plants.
(§4) For example, 100% action=the plants have died and
(§5) 0% action=like control plants.
(§6) Tables C1-C3 below show the effects of a compound according to the invention (I.14-442) and a structurally related compound from WO2019/101551 (No. 16) on various harmful plants and at an application rate corresponding to 18 g/ha and less, which were obtained by the experimental procedure mentioned above.

Xanthium strumarium = assay: as above; conditions: with 1.5 l/ha Mero and 2 kg/ha AMS, rated after 21 days
Source text: as §1, §2, §3, §4, §5, §6

Solanum nigrum = assay: as above; conditions: with 1.5 l/ha Mero and 2 kg/ha AMS, rated after 21 days
Source text: as §1, §2, §3, §4, §5, §6

Zea mays = assay: Comparative post-emergence crop plant compatibility (with Mero and AMS)
Source text: as §1, §2, §3, §4, §5
(§7) Tables C4 and C5 below show the effects of a compound according to the invention (114-442) and a compound from WO2019/101551 (No. 16) on various crop plants and at an application rate corresponding to 6 g/ha and less, which were obtained by the experimental procedure mentioned above.

Glycine max = assay: as above
Source text: as §1, §2, §3, §4, §5, §7

- Zea mays (efficacy in %) (Zea mays; application rate 2 g/ha): 40%
- Zea mays (efficacy in %) (Zea mays; application rate 6 g/ha): 50%
- Glycine max (efficacy in %) (Glycine max; application rate 2 g/ha): 40%
- Glycine max (efficacy in %) (Glycine max; application rate 6 g/ha): 50%
SMILES: CCOC(=O)COc1ncccc1Oc1cc(-n2c(=O)c(C)c(C(F)(F)F)n(C)c2=O)c(F)cc1Cl [No. 16]
- Polygonum convolvulus (efficacy in %) (Polygonum convolvulus; application rate 6 g/ha): 65%
- Polygonum convolvulus (efficacy in %) (Polygonum convolvulus; application rate 18 g/ha): 75%
- Xanthium strumarium (efficacy in %) (Xanthium strumarium; application rate 6 g/ha): 50%
- Xanthium strumarium (efficacy in %) (Xanthium strumarium; application rate 18 g/ha): 85%
- Solanum nigrum (efficacy in %) (Solanum nigrum; application rate 6 g/ha): 80%
- Solanum nigrum (efficacy in %) (Solanum nigrum; application rate 18 g/ha): 80%
